# Reference: patent US9200001B2, “Triazolyl PDE10 inhibitors” (Merck Sharp & Dohme Corp., priority 2011, dated 2015)
# Experiments:
# human PDE10A2 = human PDE10A2 (Homo sapiens (Human), UniProt Q9Y233); assay: PDE10 fluorescence polarization (IMAP FP) inhibition assay; type: biochemical; conditions: FAM-labeled cAMP 50 nM, room temperature, read-out: PDE10a Ki
# How it was run: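 Cytoplasmic lysate of AD293 cells transiently expressing human PDE10A2, incubated 30 minutes at room temperature with 50 nM FAM-labeled cAMP in Tris pH 7.2 with MgCl2. Read by IMAP fluorescence polarization; 0% inhibition set by 1% DMSO, 100% by a reference PDE10 inhibitor.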
# human PDE10A2, sequence (Q9Y233 267-1055): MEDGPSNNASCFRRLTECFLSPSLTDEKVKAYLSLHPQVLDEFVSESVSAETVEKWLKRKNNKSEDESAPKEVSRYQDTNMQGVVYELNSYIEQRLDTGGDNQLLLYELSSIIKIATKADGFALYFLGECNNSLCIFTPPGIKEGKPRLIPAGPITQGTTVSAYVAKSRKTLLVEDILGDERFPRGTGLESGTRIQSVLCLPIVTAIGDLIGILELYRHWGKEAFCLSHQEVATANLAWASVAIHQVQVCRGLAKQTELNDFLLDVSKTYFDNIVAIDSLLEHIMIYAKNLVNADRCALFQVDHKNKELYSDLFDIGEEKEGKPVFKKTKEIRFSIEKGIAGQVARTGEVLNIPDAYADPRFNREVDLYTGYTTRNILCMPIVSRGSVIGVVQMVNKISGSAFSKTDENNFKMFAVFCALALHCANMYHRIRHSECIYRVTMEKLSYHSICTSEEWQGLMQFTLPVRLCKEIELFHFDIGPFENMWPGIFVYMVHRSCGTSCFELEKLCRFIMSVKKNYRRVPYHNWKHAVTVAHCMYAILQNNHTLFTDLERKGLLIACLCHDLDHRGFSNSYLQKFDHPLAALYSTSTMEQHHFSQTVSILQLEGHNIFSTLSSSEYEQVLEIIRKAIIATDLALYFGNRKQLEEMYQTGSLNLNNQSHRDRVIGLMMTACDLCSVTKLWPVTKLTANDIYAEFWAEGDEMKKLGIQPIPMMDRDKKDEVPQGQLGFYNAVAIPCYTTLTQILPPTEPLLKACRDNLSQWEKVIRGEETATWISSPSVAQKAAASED
melting point,Ki (human PDE10A2),Structure (SMILES)
164 to 165 °C,1.2 nM,"Cc1nc(C)n(-c2cc([C@H]3C[C@@H]3c3nc4ccccc4n3C)nc(N(C)C)n2)n1 (relative stereo) [Cpd 114, trans-4-(3,5-dimethyl-1H-1,2,4-triazol-1-yl)-N,N-dimethyl-6-[2-(1-methyl-1H-benzimidazol-2-yl)cyclopropyl]pyrimidin-2-amine]"
133 to 135 °C,0.62 nM,"Cc1nc(C)n(-c2cc([C@H]3C[C@@H]3c3nc4ccccc4n3C)nc(OC(C)C)n2)n1 (relative stereo) [Cpd 113, trans-2-{2-[6-(3,5-dimethyl-1H-1,2,4-triazol-1-yl)-2-(1-methylethoxy)pyrimidin-4-yl]cyclopropyl}-1-methyl-1H-benzimidazole]"
229 to 231 °C,,"Cc1nc(C)n(-c2cc([C@@H]3C[C@H]3c3nc4ccccc4n3C)nc(C#N)n2)n1 (relative stereo) [Example 21, trans-4-(3,5-dimethyl-1H-1,2,4-triazol-1-yl)-6-(2-(1-methyl-1H-benzo[d]imidazol-2-yl)cyclopropyl)pyrimidine-2-carbonitrile]"
226 to 228 °C,,"Cc1nc(C)n(-c2cc([C@H]3C[C@@H]3c3nc4ccccc4n3C)nc(N3CCOCC3)n2)n1 (relative stereo) [Cpd 117, trans-2-{2-[6-(3,5-dimethyl-1H-1,2,4-triazol-1-yl)-2-morpholin-4-ylpyrimidin-4-yl]cyclopropyl}-1-methyl-1H-benzimidazole]"
82 to 83 °C,,"CCOc1nc([C@@H]2C[C@H]2c2nc3ccccc3n2C)cc(-n2nc(C)nc2C)n1 (relative stereo) [Example 14, trans-2-(2-(6-(3,5-dimethyl-1H-1,2,4-triazol-1-yl)-2-ethoxypyrimidin-4-yl)cyclopropyl)-1-methyl-1H-benzo[d]imidazole]"
119 to 121 °C,1.6 nM,"Cc1nc(C)n(-c2cc([C@H]3C[C@@H]3c3nc4ccccc4n3C)nc(C(N)=O)n2)n1 (relative stereo) [Cpd 130, trans-4-(3,5-dimethyl-1H-1,2,4-triazol-1-yl)-6-[2-(1-methyl-1H-benzimidazol-2-yl)cyclopropyl]pyrimidine-2-carboxamide]"
180 to 185 °C,1.2 nM,"Cc1nc(C)n(-c2cc([C@H]3C[C@@H]3c3nc4ccccc4n3C)nc(N3CCCC3)n2)n1 (relative stereo) [Cpd 116, trans-2-{2-[6-(3,5-dimethyl-1H-1,2,4-triazol-1-yl)-2-pyrrolidin-1-ylpyrimidin-4-yl]cyclopropyl}-1-methyl-1H-benzimidazole]"
